According to patent US20170064957A1, “ACTIVE COMPOUND COMBINATIONS HAVING IN[…]” (BAYER CROPSCIENCE AKTIENGESELLSCHAFT, priority 2014, published 2017):

What was measured:
Type in all cases: in vivo
[1] = tested on: mustard beetle larvae (Phaedon cochleariae); experiment: Phaedon cochleariae - spray test; conditions: Chinese cabbage leaf disks
Description: (§1) The expected activity for a given combination of two active compounds can be calculated according to S. R. Colby, Weeds 15 (1967), 20-22 as follows: • If • X is the kill rate, expressed in % of the untreated control, when active compound A is applied at an application rate of m g/ha or at a concentration of m ppm, • Y is the kill rate, expressed in % of the untreated control, when active compound B is applied at an application rate of n g/ha or at a concentration of n ppm and • E is the kill rate, expressed in % of the untreated control, when active compounds A and B is applied at application rates of m and n g/ha or at a concentration of m and n ppm, • then
Phaedon cochleariae—Spray Test
(§2) To produce a suitable preparation of active compound, 1 part by weight of active compound is mixed with the stated amount of solvents and is diluted with water, containing an emulsifier concentration of 1000 ppm, to the desired concentration. To produce a suitable preparation of a spore suspension the spores are diluted with emulsifier containing water to the desired concentration. Further test concentrations are prepared by dilution with emulsifier containing water.
Chinese cabbage (Brassica pekinensis) leaf disks are sprayed with a preparation of the active ingredient of the desired concentration. Once dry, the leaf disks are infested with mustard beetle larvae (Phaedon cochleariae).
After the specified period of time, mortality in % is determined. 100% means all beetle larvae have been killed and 0% means none of the beetle larvae have been killed. The mortality values determined thus are recalculated using the Colby-formula (see sheet 1).

[2] = tested on: larvae of the cotton boll worm (Heliothis armigera); experiment: Heliothis armigera - spray test; conditions: cotton plants
Description: as §1
Heliothis armigera—Spray Test
(§3) Solvent: 7 parts by weight of dimethylformamide Emulsifier: alkylaryl polyglycol ether
(§4) To produce a suitable preparation of active compound, 1 part by weight of active compound is mixed with the stated amount of solvent and is diluted with water, containing an emulsifier concentration of 1000 ppm, to the desired concentration. Further test concentrations are prepared by dilution with emulsifier containing water. Ammonium salt and/or penetration enhancer in a dosage of 1000 ppm are added to the desired concentration if necessary.
Cotton plants (Gossypium hirsutum) are treated by being sprayed with the preparation of the active compound of the desired concentration and are infested with larvae of the cotton boll worm (Heliothis armigera).
After the specified period of time, the mortality in % is determined. 100% means all caterpillars have been killed; 0% means none of the caterpillars have been killed. The mortality values determined thus are recalculated using the Colby-formula (see sheet 1).

[3] = tested on: two spotted spidermite (Tetranychus urticae); experiment: Tetranychus urticae - spray test OP-resistant; conditions: French bean leaf disks
Description: as §1
Tetranvchus Urticae—Spray Test OP-Resistant
as §2
French bean (Phaseolus vulgaris) leaf disks which are heavily infested with all stages of the two spotted spidermite (Tetranychus urticae), are sprayed with a preparation of the active ingredient of the desired concentration.
After the specified period of time, mortality in % is determined. 100% means all spider mites have been killed and 0% means none of the spider mites have been killed. The mortality values determined thus are recalculated using the Colby-formula (see sheet 1).

[4] = tested on: caterpillars of the fall army worm (Spodoptera frugiperda); experiment: Spodoptera frugiperda - spray test; conditions: 0.1 ppm, cotton leaves
Description: as §1
Spodoptera frugiperda—Spray Test
as §3
as §4, with “added” for “added to the desired concentration”
Cotton leaves (Gossypium hirsutum) are treated by being sprayed with the preparation of the active compound of the desired concentration and are infested with caterpillars of the fall army worm (Spodoptera frugiperda).
After the specified period of time mortality in % is determined. 100% means all the caterpillars have been killed and 0% means none of the caterpillars have been killed. The mortality values determined thus are recalculated using the Colby-formula (see sheet 1).

For `CNC(=O)c1cc(C#N)cc(C)c1NC(=O)c1cc(Cn2nnc(C(F)(F)F)n2)nn1-c1ncccc1Cl` [(II-2), 1-(3-chloropyridin-2-yl)-N-[4-cyano-2-methyl-6-(methylcarbamoyl)phenyl]-3-{[5-(trifluoromethyl)-2H-tetrazol-2-yl]methyl}-1H-pyrazole-5-carboxamide], the “Efficacy in % after 6d” value ([1]; 0.0064 g ai/ha) was 0% and the “Efficacy in % after 6d” value ([1]; 0.032 g ai/ha) was 33%.

`CNC(=O)c1cc(Cl)cc(C)c1NC(=O)c1cc(Br)nn1-c1ncccc1Cl` [Chlorantraniliprole] was tested, and the “Efficacy in % after 6d” value ([1]; 0.16 g ai/ha) was 0%.

With `Cc1cc(C(F)(C(F)(F)F)C(F)(F)F)ccc1NC(=O)c1cccc(Cl)c1C(=O)NC(C)(C)C#N` [Compound of formula (II-6)] the “Efficacy in % after 2d” value ([2]; 0.1 ppm) was 20%, the “Efficacy in % after 2d” value ([2]; 0.2 ppm) was 50% and the “Efficacy in % after 1d” value ([2]; 0.4 ppm, 1 d) was 30%. For the same compound, the “Efficacy in % after 2d” value ([2]; 0.4 ppm) was 60%.

For `CNC(=O)c1cc(C#N)cc(C)c1NC(=O)c1cc(Br)nn1-c1ncccc1Cl` [Cyantraniliprole], the “Efficacy in % after 6d” value ([2]; 0.15 ppm, 6 d) was 50%.

For `Cc1cc(C(F)(C(F)(F)F)C(F)(F)F)ccc1NC(=O)c1cccc(I)c1C(=O)NC(C)(C)CS(C)(=O)=O` [Flubendiamide], the “Efficacy in % after 2d” value ([3]; 0.8 g ai/ha) was 0%, the “Efficacy in % after 6d” value ([3]; 0.8 g ai/ha, 6 d) was 0% and the “Efficacy in % after 2d” value ([3]; 4 g ai/ha) was 0%. For the same compound, the “Efficacy in % after 1d” value ([4]; 1 d) was 0%, the “Efficacy in % after 2d” value ([4]; 2 d) was 0% and the “Efficacy in % after 3d” value ([4]; 3 d) was 0%.
